The values below come from the METLIN SMRT retention time set (Domingo-Almenara et al. 2019).

This data set can be described thus: gradient 5% acetonitrile 3 min, to 50% in 2 min, to 85% in 15 min, held 3 min, 100 µL/min. Conditions: column: Zorbax Extend-C18 2.1 x 50 mm; eluents: water / acetonitrile, 0.1% formic acid. In outline:
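Using water and acetonitrile that each contained 0.1% formic acid, mixtures of ~100 pure standards were separated at 100 μL/min on a Zorbax Extend-C18 column (2.1 × 50 mm, 1.8 μm). The HPLC fed a quadrupole time-of-flight mass spectrometer working in positive and negative ionization mode, with dead and dwell volumes of 40 μL and 900 μL. Data were acquired over 3 months. Retention time was read from computationally picked adduct peaks after manual inspection of each.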
Consider `Cc1ccc(C(=O)Nc2cccc(OCc3nnc(-c4ccc(Cl)cc4)o3)c2)s1`, for which the RP-LC retention time stood at 1100 s.

In turn, `CC(C)c1noc(C2Cc3ccccc3N2C(=O)NC2CCCC2)n1` (centres undefined) yielded an RP-LC retention time of 650 s.

On to `Cc1ccc(-c2nc3sc(N4CCCCC4)nn3c2NC(=O)C2CCCO2)cc1` (centres undefined), for which the RP-LC retention time was 901 s.

In the case of `CCNC(=O)Nc1ccc2c(c1)CN(Cc1cn(C(C)C)c3ccc(OC)cc13)CCO2`, the RP-LC retention time is 726 s.

As for `O=C(NCc1ccccn1)C1CCN(c2nc3ccc(-c4cncnc4)nc3s2)CC1`, the RP-LC retention time is 599 s.

In the case of `CCc1nc(-c2csc(S(=O)(=O)N3CCC(C(=O)NC(C)CC)CC3)c2)no1` (centres undefined), the RP-LC retention time amounted to 854 s.

Compound `CC(C)(C)C(=O)Nc1cnc(-c2cccc(Cl)c2)nc1` returned an RP-LC retention time of 1070 s.

As for `CCOC(=O)N1CCN(c2ncc(C(=O)Nc3ccccc3)c(N)n2)CC1`, the RP-LC retention time is 692 s.

`CCc1noc(NC(C)=O)c1-c1ccc(C)c(S(=O)(=O)Nc2cc(Cl)c(OC)cc2OC)c1` showed an RP-LC retention time of 859 s.

Regarding `Cc1ccc(CN2N=C(C(=O)N3CCOCC3)S(=O)(=O)c3ccc(C)cc32)cc1`, the RP-LC retention time came out at 907 s.

With `CN1C(=O)c2cc(C(=O)N3CCC(C(N)=O)CC3)nn2CC1(C)C(=O)NC1CCCCCC1` (centres undefined), the RP-LC retention time came to 956 s.

In the case of `O=C(NC1CC1)[C@@H]1C[C@H](Oc2ccccc2)CN1C(=O)c1ccc2ncccc2c1`, the RP-LC retention time amounted to 649 s.

In turn, `COC(=O)c1c(C)[nH]c(C(=O)N2CCCC(C(=O)N(C)Cc3ccco3)C2)c1C` (centres undefined) yielded an RP-LC retention time of 726 s.

In the case of `O=C(NCCC1=CCCCC1)C1CCCN(C(=O)Cc2cccc3ccccc23)C1` (centres undefined), the RP-LC retention time is 1030 s.

Take `CCc1ccc(NC(=O)NCC(c2cccnc2)c2c[nH]c3ccccc23)cc1` (centres undefined): the RP-LC retention time was found to be 710 s.

In turn, `Cc1ccc(NC(=O)C2CCCN(c3ccc(=O)n(-c4cccc(Cl)c4)n3)C2)c(C)c1` (centres undefined) displayed an RP-LC retention time of 964 s.

The compound `CCc1ccc(NC(=O)C2CCN(S(=O)(=O)c3ccc4c(c3)NC(=O)C(CC)O4)CC2)cc1` (centres undefined) showed an RP-LC retention time of 963 s.

Consider `Cc1sc(-c2cc(C(F)(F)F)[nH]n2)cc1S(=O)(=O)N1CCN(c2ccccc2F)CC1`, for which the RP-LC retention time is 1170 s.

Consider `COc1ccc(C)cc1NC(=O)CN1C(=O)C(C)(C)c2cc(C)ccc21`, for which the RP-LC retention time was determined as 588 s.

Regarding `Cc1ccc(CNC(=O)C2(CCO)CCN(Cc3ccccc3)C2)o1` (centres undefined), the RP-LC retention time came out at 656 s.

Regarding `O=C(CSc1nccnc1N1CCN(c2ccccc2)CC1)Nc1ccc(F)cc1F`, the RP-LC retention time was 1110 s.

Regarding `COc1ccc(-n2c(=O)c(C(=O)NCC(C)C)c(O)c3cccnc32)cc1`, the RP-LC retention time was found to be 1160 s.

In turn, `COc1ccc(NC(=O)N2CCCC(C)(C(=O)NCc3ccccc3)C2)cc1` (centres undefined) returned an RP-LC retention time of 828 s.

As for `CC(C)(C)C(=O)NC1CCN(C(=O)c2ccc(F)cc2)C1` (centres undefined), the RP-LC retention time came to 688 s.

Compound `Cc1nccn1CC(=O)N1CCCC(OCc2nc(C(C)C)no2)C1` (centres undefined) yielded an RP-LC retention time of 596 s.

In the case of `CN(C)C[C@@H]1CN(Cc2ccccc2)C[C@H]1NS(=O)(=O)c1cccc(F)c1`, the RP-LC retention time was 586 s.

Compound `COCCNC(=O)NCC(O)Cc1ccccc1` (centres undefined) registered an RP-LC retention time of 591 s.

`Cn1cnc2cc(OC(=O)c3c(F)cccc3F)ccc21` gave an RP-LC retention time of 590 s.

Turning to `COc1ccc(C)cc1NC(=O)N1CCC(c2cc(N)on2)CC1`, the RP-LC retention time was determined as 720 s.

Take `COc1ccccc1CNC1=NCCNC12CCN(S(=O)(=O)c1cc(C)ccc1C)CC2`: the RP-LC retention time was 775 s.

In turn, `CC1(C(=O)NCc2ccc(F)cc2)CN(S(C)(=O)=O)CC(=O)N1c1cccc(F)c1` (centres undefined) returned an RP-LC retention time of 764 s.

Compound `Cc1cccc(-c2nc(C3CC(=O)N(c4ccc(Cl)cc4)C3)no2)c1` (centres undefined) showed an RP-LC retention time of 1110 s.

Consider `CCOc1ccccc1C(=O)n1nc(C)c(S(=O)(=O)N2CCC(C)CC2)c1C`, for which the RP-LC retention time was determined as 1230 s.

Consider `COc1cccc(CNC(=O)Nc2cccc(-c3ccc(N4CCCCC4)nn3)c2)c1`, for which the RP-LC retention time stood at 702 s.

The compound `COc1ccc(N2CCN(c3nc(C(=O)NCCN4CCOCC4)cs3)CC2)cc1` came in with an RP-LC retention time of 615 s.

For the compound `COc1ccc(-c2nc(Cn3ccnc3C)no2)cc1`, the RP-LC retention time is 607 s.

In turn, `COc1cc(OC)cc(N2C(=O)C3N=NN(Cc4nc(-c5ccccc5Cl)no4)C3C2=O)c1` (centres undefined) registered an RP-LC retention time of 967 s.

`O=C(Cn1cnc(-c2cccs2)cc1=O)NCCn1nc(-c2cccs2)ccc1=O` registered an RP-LC retention time of 666 s.

`Cc1cc(C)c2nc(C)cc(C(=O)N3CCN(c4ccccn4)CC3)c2c1` came in with an RP-LC retention time of 593 s.

In turn, `Cc1cc(C2CCCN2C(=O)Nc2ccccc2C)no1` (centres undefined) returned an RP-LC retention time of 757 s.

Take `COc1ccc(NC(=O)N(C)CC2CCOCC2)cc1Cl`: the RP-LC retention time was found to be 712 s.

As for `CCOC(=O)c1c(C)n(Cc2ccco2)c2ccc(OCC)cc12`, the RP-LC retention time amounted to 617 s.

As to `O=C(NCCc1ccc(Cl)cc1)C1CCCN(c2ncnc3c2nc2n3CCCCC2)C1` (centres undefined), the RP-LC retention time came out at 838 s.

`O=C(Nc1nccs1)c1cccc(NS(=O)(=O)c2ccc(F)cc2)c1` returned an RP-LC retention time of 751 s.

Consider `COC(=O)c1nnc2c(-c3ccccc3OC)c(C)nn2c1C`, for which the RP-LC retention time is 869 s.

With `NC(=O)C1CCN(C(=O)Cc2cc(-c3cccs3)on2)CC1`, the RP-LC retention time was 594 s.

Regarding `O=C(CCSc1ccccc1)NCC1CCN(C(=O)COc2ccccc2)CC1`, the RP-LC retention time was 757 s.

For the compound `CN1C(=O)CCc2cc(NS(=O)(=O)Cc3ccc(Cl)cc3)ccc21`, the RP-LC retention time came to 788 s.

With `CC(Oc1cccc(Cl)c1)C(=O)N1CCCN(c2cc(=O)n(C)c(=O)n2C)CC1` (centres undefined), the RP-LC retention time is 707 s.

`O=C(NCCc1csc(-c2ccccc2)n1)C1CCN(S(=O)(=O)c2ccc(Cl)s2)CC1` registered an RP-LC retention time of 1010 s.

With `O=[N+]([O-])c1ccc2[nH]c3nc4ccccc4nc3c2c1`, the RP-LC retention time is 876 s.

The compound `Cc1cc(C)n(CCC(=O)N2CC(Oc3cccc(-c4nc(-c5ccccc5)no4)c3)C2)n1` registered an RP-LC retention time of 1000 s.

Take `CC1CCCN(c2ccc(-c3noc(CN4CCN(c5ccccn5)CC4)n3)cn2)C1` (centres undefined): the RP-LC retention time worked out at 908 s.

Compound `Cn1c(=O)c(SCC(=O)NCCN2CCCCC2)nc2ccccc21` came in with an RP-LC retention time of 594 s.

Compound `Cc1ccsc1C(=O)N1CCC(N2C[C@H](O)C[C@H]2C(=O)NC2CCCCC2)CC1` registered an RP-LC retention time of 631 s.

`Cc1nnc2sc(SCC(=O)NCc3ccc4c(c3)OCO4)nn2c1=O` showed an RP-LC retention time of 603 s.

With `CCn1cc(C)c(C(=O)O)c1CC(=O)N1CCc2ccccc21`, the RP-LC retention time was determined as 815 s.

Regarding `OCCNCc1ccc(-c2ccccc2F)o1`, the RP-LC retention time came out at 596 s.

In turn, `Cc1ccc(S(=O)(=O)n2nc(OC(=O)c3ccc(Cl)cc3Cl)cc2N)cc1` displayed an RP-LC retention time of 1030 s.

`O=C(c1ccc(N2CCNC(c3ccccc3)C2)nc1)N1CCSCC1` (centres undefined) registered an RP-LC retention time of 606 s.

As for `CCn1c(N2CCC(C(=O)NC3CCCCC3)CC2)cc(=O)n(C)c1=O`, the RP-LC retention time was found to be 784 s.

Consider `COc1ccc(-c2nnc3ccc(SCC(=O)Nc4cc(C)on4)nn23)cc1OC`, for which the RP-LC retention time stood at 606 s.

Consider `CCN1C(=O)COc2ccc(-c3nc(NC(=O)C4CCCO4)sc3C)cc21` (centres undefined), for which the RP-LC retention time was 844 s.

Compound `COc1ccc2c(c1)C1(CCN(C(=O)c3ccc(C)cc3)C1)C(=O)N2C` (centres undefined) showed an RP-LC retention time of 785 s.

Consider `CC(=O)N1CCc2cc(C(=O)N3CCCCCC3)ccc21`, for which the RP-LC retention time worked out at 723 s.

In turn, `CC(C)NC(=O)C1CCN(c2nc3ccc(-c4ccsc4)nc3s2)CC1` showed an RP-LC retention time of 796 s.

The compound `Cc1oc(-c2[nH]ncc2C(=O)N2CCOCC2)cc1S(=O)(=O)NC1CCCC1` came in with an RP-LC retention time of 645 s.

In turn, `CCOC(=O)c1cnn2c(C(F)(F)F)cc(-c3ccc(F)cc3)nc12` showed an RP-LC retention time of 1110 s.

As for `COc1ccc(-c2nnc(Cc3nc(-c4cccc(Cl)c4)no3)o2)cc1OC`, the RP-LC retention time amounted to 995 s.

Compound `Cc1ccc2c(c1)N(C(=O)Cn1ccc3ccn(Cc4ccccc4C)c3c1=O)CCO2` came in with an RP-LC retention time of 1090 s.

`CCc1ccc(S(=O)(=O)N2CCN(CCc3cn(CC)c4ncccc34)CC2)cc1` had an RP-LC retention time of 690 s.

`Cc1cnn(CCC(=O)N2CCCCCCNC(=O)[C@@H]3CCCC[C@@H]32)c1`: the RP-LC retention time was 728 s.

Turning to `CNC(=O)N1CCCC(c2cccc(C(=O)NCc3ccc(OC(C)C)cc3)c2)C1` (centres undefined), the RP-LC retention time turned out to be 835 s.

As for `Cc1ccc(CNC(=O)C2CC(=O)N(c3ccc4c(c3)CCN4C(=O)C3CC3)C2)cc1` (centres undefined), the RP-LC retention time was determined as 756 s.

The compound `Cc1oc(-c2ccc(NC(=O)C3CCC3)cc2)nc1Cn1cccn1` showed an RP-LC retention time of 799 s.

Compound `COc1ccc(-c2noc(-c3cccn(CC(=O)Nc4ccc(C#N)cc4)c3=O)n2)cc1OC` registered an RP-LC retention time of 779 s.

Take `CCOC(=O)C1=C(C)NC2=C(C(=O)c3ccccc32)C1c1ccccc1OCC` (centres undefined): the RP-LC retention time came out at 961 s.

The compound `CCOc1ccc(-c2noc(Cn3cnc4c(cnn4-c4ccccc4)c3=O)n2)cc1OC` returned an RP-LC retention time of 980 s.

As to `O=C(O)c1ccc(Nc2nc(-c3ccc(Cl)cc3Cl)nc3ccccc23)cc1`, the RP-LC retention time worked out at 828 s.
